Results: US6737383B1, “Herbicidal oxadiazolidines” (priority 1999, dated 2004)

Assays:
rice = test: Test B flood test rice; type: in vivo, Oryza sativa
How it was run: (§1)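 Plants were grown to the 2-leaf stage before treatment with test chemical, then held in a greenhouse for twelve to sixteen days. Injury was visually rated against untreated controls on a 0–10 scale, where 0 is no effect and 10 is complete control.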

cocklebur = test: Test B pre/postemergence cocklebur; type: in vivo, Xanthium strumarium
How it was run: (§2)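 Response is a visual 0-to-10 score relative to untreated plants, where 0 means no effect and 10 means complete control, taken twelve to sixteen days after application. Treatments went onto soil at planting and onto foliage of 1- to 4-leaf plants, using a surfactant-containing non-phytotoxic solvent.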

surinam grass = test: Test B pre/postemergence surinam grass; type: in vivo, Brachiaria decumbens
How it was run: as §2

bedstraw = test: Test B pre/postemergence bedstraw; type: in vivo, Galium aparine
How it was run: as §2

corn = test: Test B pre/postemergence corn; type: in vivo, Zea mays
How it was run: as §2

wheat = test: Test B pre/postemergence wheat; type: in vivo, Triticum aestivum
How it was run: as §2

crabgrass = test: Test B pre/postemergence crabgrass; type: in vivo, Digitaria sanguinalis
How it was run: as §2

blackgrass = test: Test B pre/postemergence blackgrass; type: in vivo, Alopecurus myosuroides
How it was run: as §2

smallflower flatsedge = test: Test B flood test smallflower flatsedge; type: in vivo, Cyperus difformis
How it was run: as §1

velvetleaf = test: Test B pre/postemergence velvetleaf; type: in vivo, Abutilon theophrasti
How it was run: as §2

giant foxtail = test: Test B pre/postemergence giant foxtail; type: in vivo, Setaria faberii
How it was run: as §2

soybean = test: Test B pre/postemergence soybean; type: in vivo, Glycine max
How it was run: as §2

wild oat = test: Test B pre/postemergence wild oat; type: in vivo, Avena fatua
How it was run: as §2

pigweed = test: Test B pre/postemergence pigweed; type: in vivo, Amaranthus retroflexus
How it was run: as §2

bamyardgrass = test: Test B flood test barnyardgrass; type: in vivo, Echinochloa crus-galli
How it was run: as §1

morningglory = test: Test B pre/postemergence morningglory; type: in vivo, Ipomoea hederacea
How it was run: as §2

rape = test: Test B pre/postemergence rape; type: in vivo, Brassica napus
How it was run: as §2

duck salad = test: Test B flood test duck salad; type: in vivo, Heteranthera limosa
How it was run: as §1

purple nutsedge = test: Test B pre/postemergence purple nutsedge; type: in vivo, Cyperus rotundus; details: Postemergence
How it was run: as §2

sugar beet = test: Test B pre/postemergence sugar beet; type: in vivo, Beta vulgaris
How it was run: as §2

[1] = Rate 62 g/ha, headed Pre-emergence (flood test species), scale 0 to 10 (0 no effect, 10 complete control)
[2] = Rate 125 g/ha, Pre-emergence, flood test species, scale 0 to 10 where 0 is no effect and 10 is complete control
[3] = Rate 250 g/ha, Pre-emergence, flood-test species, scale 0 to 10, 0 is no effect, 10 is complete control
[4] = Rate 500 g/ha, Pre-emergence, flood test species, scale 0 to 10 (0 no effect, 10 complete control)
[5] = Preemergence, Rate 62 g/ha, scale of 0 to 10 where 0 is no effect and 10 is complete control
[6] = Preemergence, Rate 250 g/ha, scale of 0 to 10 where 0 is no effect and 10 is complete control
[7] = Preemergence, Rate 500 g/ha, scale of 0 to 10 where 0 is no effect and 10 is complete control
[8] = Rate 62 g/ha, Postemergence, scale of 0 to 10 where 0 is no effect and 10 is complete control
[9] = Rate 125 g/ha, Postemergence, scale 0 to 10
[10] = Rate 125 g/ha, Preemergence, scale of 0 to 10 where 0 is no effect and 10 is complete control
[11] = Rate 500 g/ha, Postemergence, scale 0 to 10, 0 no effect, 10 complete control

COCCOCn1c(=O)on(C(=O)N(c2ccc(F)cc2)C(C)C)c1=O [Compound 258]
Rice plant response rating (rice; [1]): 0 | Rice plant response rating (rice; [2]): 0 | Rice plant response rating (rice; [3]): 0 | Rice plant response rating (rice; [4]): 0 | Cocklebur plant response rating (cocklebur; [5]): 0 | Cocklebur plant response rating (cocklebur; [6]): 0 | Plant response rating, Cocklebur (cocklebur; [7]): 0 | Cocklebur plant response rating (cocklebur; [8]): 0 | Cocklebur plant response rating (cocklebur; [9]): 0 | Cocklebur plant response rating (cocklebur; [10]): 0 | Plant response rating (0 to 10; 0 is no effect, 10 is complete control), Cocklebur (cocklebur; Rate 250 g/ha, Postemergence): 0 | Cocklebur plant response rating (cocklebur; [11]): 1 | B. signalgrass plant response rating (surinam grass; [5]): 0 | B. signalgrass plant response rating (surinam grass; [6]): 7 | Plant response rating, B. signalgrass (surinam grass; [7]): 8 | B. signalgrass plant response rating (surinam grass; [8]): 0 | B. signalgrass plant response rating (surinam grass; Rate 125 g/ha, Postemergence, scale 0 (no effect) to 10 (complete control)): 0 | B. signalgrass plant response rating (surinam grass; [10]): 4 | Plant response rating (0 to 10; 0 is no effect, 10 is complete control), B. signalgrass (surinam grass; Rate 250 g/ha, Postemergence): 4 | B. signalgrass plant response rating (surinam grass; [11]): 8 | Bedstraw plant response rating (bedstraw; [5]): 0 | Bedstraw plant response rating (bedstraw; [6]): 3 | Plant response rating, Bedstraw (bedstraw; [7]): 10 | Bedstraw plant response rating (bedstraw; [8]): 2 | Bedstraw plant response rating (bedstraw; [9]): 4 | Bedstraw plant response rating (bedstraw; [10]): 3 | Plant response rating (0 to 10; 0 is no effect, 10 is complete control), Bedstraw (bedstraw; Rate 250 g/ha, Postemergence): 7 | Bedstraw plant response rating (bedstraw; [11]): 8 | Corn plant response rating (corn; [5]): 0 | Corn plant response rating (corn; [6]): 3 | Plant response rating, Corn (corn; [7]): 5 | Corn plant response rating (corn; [8]): 0 | Corn plant response rating (corn; [9]): 0 | Corn plant response rating (corn; [10]): 2 | Plant response rating (0 to 10; 0 is no effect, 10 is complete control), Corn (corn; Rate 250 g/ha, Postemergence): 0 | Corn plant response rating (corn; [11]): 0 | Wheat plant response rating (wheat; [5]): 0 | Wheat plant response rating (wheat; [6]): 4 | Plant response rating, Wheat (wheat; [7]): 7 | Wheat plant response rating (wheat; [10]): 4 | Wheat plant response rating (wheat; [11]): 6 | Crabgrass plant response rating (crabgrass; [5]): 3 | Crabgrass plant response rating (crabgrass; [6]): 9 | Plant response rating, Crabgrass (crabgrass; [7]): 10 | Crabgrass plant response rating (crabgrass; [10]): 7 | Plant response rating (0 to 10; 0 is no effect, 10 is complete control), Crabgrass (crabgrass; Rate 250 g/ha, Postemergence): 2 | Crabgrass plant response rating (crabgrass; [11]): 5 | Blackgrass plant response rating (blackgrass; [5]): 6 | Blackgrass plant response rating (blackgrass; [6]): 8 | Plant response rating, Blackgrass (blackgrass; [7]): 8 | Blackgrass plant response rating (blackgrass; [8]): 1 | Blackgrass plant response rating (blackgrass; [9]): 5 | Blackgrass plant response rating (blackgrass; [10]): 8 | Plant response rating (0 to 10; 0 is no effect, 10 is complete control), Blackgrass (blackgrass; Rate 250 g/ha, Postemergence): 7 | Blackgrass plant response rating (blackgrass; [11]): 7 | S. Flatsedge plant response rating (smallflower flatsedge; [1]): 0 | S. Flatsedge plant response rating (smallflower flatsedge; [2]): 0 | S. Flatsedge plant response rating (smallflower flatsedge; [3]): 0 | S. Flatsedge plant response rating (smallflower flatsedge; [4]): 0 | Velvetleaf plant response rating (velvetleaf; [5]): 2 | Velvetleaf plant response rating (velvetleaf; [6]): 5 | Plant response rating, Velvetleaf (velvetleaf; [7]): 7 | Velvetleaf plant response rating (velvetleaf; [10]): 5 | Velvetleaf plant response rating (velvetleaf; [11]): 0 | Giant foxtail plant response rating (giant foxtail; [5]): 8 | Giant foxtail plant response rating (giant foxtail; [6]): 10 | Plant response rating, Giant foxtail (giant foxtail; [7]): 10 | Giant foxtail plant response rating (giant foxtail; [10]): 9 | Plant response rating (0 to 10; 0 is no effect, 10 is complete control), Giant foxtail (giant foxtail; Rate 250 g/ha, Postemergence): 4 | Giant foxtail plant response rating (giant foxtail; [11]): 7 | Soybean plant response rating (soybean; [5]): 0 | Soybean plant response rating (soybean; [6]): 2 | Plant response rating, Soybean (soybean; [7]): 3 | Soybean plant response rating (soybean; [10]): 0 | Soybean plant response rating (soybean; [11]): 6 | Wild oats plant response rating (wild oat; [5]): 2 | Wild oats plant response rating (wild oat; [6]): 5 | Plant response rating, Wild oats (wild oat; [7]): 6 | Wild oats plant response rating (wild oat; [10]): 4 | Wild oats plant response rating (wild oat; [11]): 3 | Redroot pigweed plant response rating (pigweed; [5]): 0 | Redroot pigweed plant response rating (pigweed; [6]): 7 | Plant response rating, Redroot pigweed (pigweed; [7]): 10 | Redroot pigweed plant response rating (pigweed; [10]): 2 | Plant response rating (0 to 10; 0 is no effect, 10 is complete control), Redroot pigweed (pigweed; Rate 250 g/ha, Postemergence): 2 | Redroot pigweed plant response rating (pigweed; [11]): 3 | Barnyardgrass plant response rating (bamyardgrass; [1]): 0 | Barnyardgrass plant response rating (bamyardgrass; [2]): 0 | Barnyardgrass plant response rating (bamyardgrass; [3]): 0 | Barnyardgrass plant response rating (bamyardgrass; [4]): 0 | Morningglory plant response rating (morningglory; [5]): 0 | Morningglory plant response rating (morningglory; [6]): 0 | Plant response rating, Morningglory (morningglory; [7]): 0 | Morningglory plant response rating (morningglory; [10]): 0 | Plant response rating (0 to 10; 0 is no effect, 10 is complete control), Morningglory (morningglory; Rate 250 g/ha, Postemergence): 7 | Morningglory plant response rating (morningglory; [11]): 10 | Rape plant response rating (rape; [5]): 0 | Rape plant response rating (rape; [6]): 5 | Plant response rating, Rape (rape; [7]): 7 | Rape plant response rating (rape; [10]): 1 | Plant response rating (0 to 10; 0 is no effect, 10 is complete control), Rape (rape; Rate 250 g/ha, Postemergence): 0 | Rape plant response rating (rape; [11]): 3 | Ducksalad plant response rating (duck salad; [1]): 0 | Ducksalad plant response rating (duck salad; [2]): 0 | Ducksalad plant response rating (duck salad; [3]): 0 | Ducksalad plant response rating (duck salad; [4]): 0 | Plant response rating (0 to 10; 0 is no effect, 10 is complete control), Nutsedge (purple nutsedge; Rate 250 g/ha): 0 | Nutsedge plant response rating (purple nutsedge; Rate 500 g/ha, scale 0 to 10, 0 no effect, 10 complete control): 0 | Sugarbeets plant response rating (sugar beet; [5]): 0 | Sugarbeets plant response rating (sugar beet; [6]): 5 | Plant response rating, Sugarbeets (sugar beet; [7]): 7 | Sugarbeets plant response rating (sugar beet; [10]): 2 | Sugarbeets plant response rating (sugar beet; [11]): 2
